Experimental data as given in patent US6875578B2, “System for cell-based screening” (priority 1997, dated 2005).
Entries after “also recorded” stand apart in the source; their conditions may differ.

Columns and labels:
L929 cells = experiment: Apoptosis nuclear morphology, L929 cells; assay type: cell-based, mouse; settings: 30 hours
Procedure: (§1) Cells were plated into 96-well plates at densities of 3×10^3 to 1×10^4 cells/well. The following day apoptotic inducers were added at indicated concentrations and cells were incubated for indicated time periods (usually 16-30 hours). The next day medium was removed and cells were stained with 5 μg/ml Hoechst (Molecular Probes, Inc.) in fresh medium and incubated for 30 minutes at 37° C. Cells were washed in Hank's Balanced Salt Solution (HBSS) and fixed with 3.7% formaldehyde in HBSS at room temperature. Cells were washed 2×with HBSS at room temperature and the plate was sealed.
(§2) Quantitation of changes in nuclear morphology upon induction of apoptosis was accomplished by (1) measuring the effective size of the nuclear region; and (2) measuring the degree of convolution of the perimeter.

BHK cells = experiment: Apoptosis nuclear morphology, BHK cells; assay type: cell-based; settings: 30 hours
Procedure: as §1, §2

L-929 cells = experiment: High-content screen of paclitaxel-induced apoptosis, L-929 cells; assay type: cell-based, mouse
Procedure: The cells chosen for this study were mouse connective tissue fibroblasts (L-929; ATCC CCL-1) and a highly invasive glioblastoma cell line (SNB-19; ATCC CRL-2219) (Welch et al., In Vitro Cell. Dev. Bid. 31:610, 1995). The day before treatment with an apoptosis inducing drug, 3500 cells were placed into each well of a 96-well plate and incubated overnight at 37° C. in a humidified 5% CO2 atmosphere. The following day, the culture medium was removed from each well and replaced with fresh medium containing various concentrations of paclitaxel (0-50 μM) from a 20 mM stock made in DMSO. The maximal concentration of DMSO used in these experiments was 0.25%. The cells were then incubated for 26 h as above. At the end of the paclitaxel treatment period, each well received fresh medium containing 750 nM MITOTRACKER™ Red (Molecular Probes; Eugene, Oreg.) and 3 μg/ml Hoechst 33342 DNA-binding dye (Molecular Probes) and was incubated as above for 20 mm. Each well on the plate was then washed with HBSS and fixed with 3.7% formaldehyde in HBSS for 15 mm at room temperature. The formaldehyde was washed out with HBSS and the cells were permeabilized for 90 s with 0.5% (v/v) Triton X-100, washed with HBSS, incubated with 2 U ml^−1 BODIPY™ FL phallacidin (Molecular Probes) for 30 mm, and washed with HBSS. The wells on the plate were then filled with 200 μl HBSS, sealed, and the plate stored at 4° C. if necessary. The fluorescence signals from plates stored this way were stable for at least two weeks after preparation. As in the nuclear translocation assay, fluorescence reagents can be designed to convert this assay into a live cell high-content screen.
The fluorescence intensity of intracellular MITOTRACKER™ Red, Hoechst 33342, and BODIPY™ FL phallacidin was measured with the cell screening system as described supra. Morphometric data from each pair of images obtained from each well was also obtained to detect each object in the image field (e.g., cells and nuclei), and to calculate its size, shape, and integrated intensity.
A total of 50-250 cells were measured per image field. For each field of cells, the following calculations were performed: (1) The average nuclear area (μm^2) was calculated by dividing the total nuclear area in a field by the number of nuclei detected. (2) The average nuclear perimeter (μm) was calculated by dividing the sum of the perimeters of all nuclei in a field by the number of nuclei detected in that field. Highly convoluted apoptotic nuclei had the largest nuclear perimeter values. (3) The average nuclear brightness was calculated by dividing the integrated intensity of the entire field of nuclei by the number of nuclei in that field. An increase in nuclear brightness was correlated with increased DNA content. (4) The average cellular brightness was calculated by dividing the integrated intensity of an entire field of cells stained with MITOTRACKER™ dye by the number of nuclei in that field. Because the amount of MITOTRACKER™ dye that accumulates within the mitochondria is proportional to the mitochondrial potential, an increase in the average cell brightness is consistent with an increase in mitochondrial potential. (5) The average cellular brightness was also calculated by dividing the integrated intensity of an entire field of cells stained with BODIPY™ FL phallacidin dye by the number of nuclei in that field. […]

[1] = tested on: microtubule arrays (tubulin-GFP chimera); experiment: Microtubule disruption assay, LLCPK cells with tubulin-GFP biosensor; assay type: cell-based, pig; settings: 10-500 nM, 12 hour time point
Procedure: For microtubule disruption assays, LLCPK cells stably transfected with a tubulin-GFP biosensor plasmid were plated on 96 well cell culture dishes at 50-60% confluence and cultured overnight at 37° C., 5% CO2. […] The cells were then observed with the cell screening system described above, at a 12 hour time point.

SMILES: CC(=O)O[C@H]1C(=O)[C@@]2(C)[C@H]([C@H](OC(=O)c3ccccc3)[C@]3(O)C[C@H](OC(=O)[C@H](O)[C@@H](NC(=O)c4ccccc4)c4ccccc4)C(C)=C1C3(C)C)[C@]1(OC(C)=O)CO[C@@H]1C[C@@H]2O [paclitaxel]
- change in nuclear morphology (L929 cells): dose-dependent change in nuclear morphology; also recorded: classic nuclear fragmentation
- change in nuclear morphology (BHK cells): consistent increase in nuclear fragmentation with increasing concentrations; also recorded: a more classical response
- sensitivity, each parameter measured (L-929 cells; L-929 cells compared with SNB-19 cells): less sensitive to low concentrations of paclitaxel than were SNB-19 cells
- concentration of maximal response in many parameters (L-929 cells; L-929 cells, 26 h): 5 µM
- mitochondrial potential (L-929 cells; L-929 cells, any of the concentrations tested (0-50 μM), 26 h): did not show a sharp decrease in mitochondrial potential
- nuclear morphology (L-929 cells; L-929 cells, increasing amounts, 26 h): caused nuclei to enlarge and fragment
- dose of maximal response relative to SNB-19 cells (L-929 cells; L-929 vs SNB-19 cells): 500 fold
- Response of microtubule arrays [1]: Stabilization
